Data set [1] concerns the target T1, L-type calcium channel (Rattus norvegicus, UniProt P22002).
T1 construct: membrane fragments of rat cardiac muscle; from tissue; host or cells: rat cardiac muscle membranes
As to the kind of experiment: Competition binding of [3H]nitrendipine to membrane fragments of rat cardiac muscle.

[2] abbreviates: [3H]nitrendipine, rat cardiac muscle membranes, SEM and n in lines below, read-out: pKi Ca (converted).
Setting [3] is: [3H]nitrendipine, rat cardiac muscle membrane fragments, L-type calcium channel, read-out: pKi Ca (converted).
[4] abbreviates: [3H]nitrendipine, rat cardiac muscle membrane fragments, L-type calcium channel.
The mark [5] stands for this setting: [3H]nitrendipine, rat cardiac muscle membranes, mean, read-out: PKi Ca (converted).

The record followed here is patent US6608086B2, “Dihydropyridines and new uses thereof” (Synaptic Pharmaceutical Corporation, priority 1993, dated 2003).

Structures can show the parent of a compound that is named as a salt. Where two headings read alike, the source gives them in different places.

T1 sequence (P22002 whole entry, other chains not shown, the tested form may be a part): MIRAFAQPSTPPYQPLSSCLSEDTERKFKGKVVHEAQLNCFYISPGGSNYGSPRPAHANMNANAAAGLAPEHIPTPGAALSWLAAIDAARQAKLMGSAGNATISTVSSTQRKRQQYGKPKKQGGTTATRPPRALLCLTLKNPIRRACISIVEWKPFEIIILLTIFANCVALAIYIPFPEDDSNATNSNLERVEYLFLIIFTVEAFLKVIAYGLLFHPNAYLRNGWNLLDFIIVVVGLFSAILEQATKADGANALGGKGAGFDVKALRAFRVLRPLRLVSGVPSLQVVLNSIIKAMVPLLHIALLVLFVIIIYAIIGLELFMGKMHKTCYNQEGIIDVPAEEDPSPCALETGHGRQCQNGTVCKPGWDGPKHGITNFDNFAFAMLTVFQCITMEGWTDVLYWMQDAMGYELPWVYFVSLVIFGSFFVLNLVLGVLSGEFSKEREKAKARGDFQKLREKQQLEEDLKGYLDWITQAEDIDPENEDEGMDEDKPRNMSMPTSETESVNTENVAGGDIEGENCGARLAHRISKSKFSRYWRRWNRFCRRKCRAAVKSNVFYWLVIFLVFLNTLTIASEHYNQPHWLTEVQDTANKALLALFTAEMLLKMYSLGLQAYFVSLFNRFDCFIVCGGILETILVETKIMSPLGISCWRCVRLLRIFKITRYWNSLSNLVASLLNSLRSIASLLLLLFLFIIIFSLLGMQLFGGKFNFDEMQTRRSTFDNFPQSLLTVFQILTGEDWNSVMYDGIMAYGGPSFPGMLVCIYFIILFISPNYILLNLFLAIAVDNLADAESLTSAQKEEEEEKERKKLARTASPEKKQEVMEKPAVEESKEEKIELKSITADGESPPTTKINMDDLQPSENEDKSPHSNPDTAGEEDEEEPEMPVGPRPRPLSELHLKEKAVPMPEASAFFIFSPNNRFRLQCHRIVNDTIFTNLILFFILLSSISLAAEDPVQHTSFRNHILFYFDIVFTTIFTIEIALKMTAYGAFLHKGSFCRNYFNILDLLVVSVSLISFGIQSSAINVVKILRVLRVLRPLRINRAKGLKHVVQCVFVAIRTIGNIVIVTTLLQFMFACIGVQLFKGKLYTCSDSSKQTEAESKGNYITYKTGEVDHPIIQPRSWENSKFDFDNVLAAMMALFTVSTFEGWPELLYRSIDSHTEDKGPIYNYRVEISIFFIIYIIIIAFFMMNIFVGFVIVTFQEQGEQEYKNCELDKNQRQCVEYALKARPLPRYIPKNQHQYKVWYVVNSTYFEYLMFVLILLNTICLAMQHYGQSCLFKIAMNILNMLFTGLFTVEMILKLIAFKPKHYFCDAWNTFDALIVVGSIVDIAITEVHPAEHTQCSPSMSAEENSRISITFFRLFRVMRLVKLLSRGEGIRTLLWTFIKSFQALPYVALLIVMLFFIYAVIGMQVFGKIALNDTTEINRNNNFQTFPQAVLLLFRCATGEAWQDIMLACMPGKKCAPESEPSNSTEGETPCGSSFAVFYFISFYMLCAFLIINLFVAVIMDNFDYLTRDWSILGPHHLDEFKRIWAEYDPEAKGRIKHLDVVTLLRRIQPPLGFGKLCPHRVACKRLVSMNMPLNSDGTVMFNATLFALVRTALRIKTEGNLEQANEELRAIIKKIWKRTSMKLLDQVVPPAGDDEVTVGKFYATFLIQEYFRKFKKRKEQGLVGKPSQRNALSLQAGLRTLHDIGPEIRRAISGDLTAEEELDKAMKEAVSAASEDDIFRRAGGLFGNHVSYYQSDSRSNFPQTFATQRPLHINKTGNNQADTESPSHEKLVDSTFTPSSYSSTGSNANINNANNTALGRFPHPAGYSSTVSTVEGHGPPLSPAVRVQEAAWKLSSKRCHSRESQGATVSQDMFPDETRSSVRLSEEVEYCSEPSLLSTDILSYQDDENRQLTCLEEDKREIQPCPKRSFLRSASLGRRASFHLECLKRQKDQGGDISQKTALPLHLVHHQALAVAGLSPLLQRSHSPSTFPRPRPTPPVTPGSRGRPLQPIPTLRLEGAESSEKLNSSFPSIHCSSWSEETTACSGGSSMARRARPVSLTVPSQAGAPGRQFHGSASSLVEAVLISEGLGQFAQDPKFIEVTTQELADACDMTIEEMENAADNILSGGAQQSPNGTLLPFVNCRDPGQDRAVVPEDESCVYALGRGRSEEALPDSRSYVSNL
T1 sequence (P54290 25-944 partner limits assumed, other chains not shown): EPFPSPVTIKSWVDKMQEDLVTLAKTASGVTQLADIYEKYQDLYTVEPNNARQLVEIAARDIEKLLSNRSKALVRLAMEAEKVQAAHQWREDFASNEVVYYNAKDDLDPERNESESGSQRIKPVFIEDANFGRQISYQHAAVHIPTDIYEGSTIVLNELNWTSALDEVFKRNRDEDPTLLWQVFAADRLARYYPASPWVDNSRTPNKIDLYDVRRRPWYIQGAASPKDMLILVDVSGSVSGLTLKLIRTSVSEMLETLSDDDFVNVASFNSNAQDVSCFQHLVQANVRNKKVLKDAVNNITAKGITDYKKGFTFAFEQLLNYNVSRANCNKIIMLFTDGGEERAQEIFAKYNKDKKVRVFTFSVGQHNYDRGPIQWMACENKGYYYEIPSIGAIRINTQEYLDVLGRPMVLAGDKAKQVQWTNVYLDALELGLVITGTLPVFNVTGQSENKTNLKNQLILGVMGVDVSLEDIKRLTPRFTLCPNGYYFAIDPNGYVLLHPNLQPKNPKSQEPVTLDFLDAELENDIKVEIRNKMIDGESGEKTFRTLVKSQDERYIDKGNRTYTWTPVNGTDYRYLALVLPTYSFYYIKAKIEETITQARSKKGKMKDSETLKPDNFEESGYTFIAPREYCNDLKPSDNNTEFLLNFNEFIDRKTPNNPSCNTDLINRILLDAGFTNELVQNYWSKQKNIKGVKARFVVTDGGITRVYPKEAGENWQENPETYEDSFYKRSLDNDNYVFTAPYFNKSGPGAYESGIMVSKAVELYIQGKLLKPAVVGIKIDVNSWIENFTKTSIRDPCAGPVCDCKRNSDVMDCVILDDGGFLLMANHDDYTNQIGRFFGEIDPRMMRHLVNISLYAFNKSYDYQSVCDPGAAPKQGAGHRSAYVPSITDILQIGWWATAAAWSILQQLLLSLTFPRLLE
T1 sequence (P54290 945-1091 partner limits assumed, other chains not shown): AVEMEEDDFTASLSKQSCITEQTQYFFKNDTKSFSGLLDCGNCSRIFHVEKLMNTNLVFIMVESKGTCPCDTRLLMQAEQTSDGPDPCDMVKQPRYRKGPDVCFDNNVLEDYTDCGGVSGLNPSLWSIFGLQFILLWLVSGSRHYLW

Regarding `COC(=O)C1=C(C)NC(C)=C(C(=O)NCCCN2CCC(c3ccccc3)CC2)C1c1ccc(Cl)c([N+](=O)[O-])c1` (centres unmarked) [Example 17, 4-(4-Chloro-3-nitrophenyl)-1,4-dihydro-3-methoxycarbonyl-2,6-dimethyl-5-(N-(3-(4-phenylpiperidin-1-yl)propyl)carboxamido)pyridine], the melting point was in the range of 191 to 192 °C. The Ki in data set [1] (setting [2]) was 10 µM.
Compound `COC(=O)C1=C(C)NC(C)=C(C(=O)NCCCN2CCC(c3ccccc3)CC2)C1c1cccc([N+](=O)[O-])c1` (centres unmarked) [Example 30, 1,4-Dihydro-3-methoxycarbonyl-2,6-dimethyl-4-(3-nitrophenyl)-5-(N-(3-(4-phenylpiperidin-1-yl)propyl)carboxamido)pyridine] showed a melting point of 78 to 80 °C. Besides, the Ki in data set [1] (setting [2]) was 0.0955 µM.
`CC1=C(C(=O)NCCCN2CCC(c3ccccc3)(c3ccccc3)CC2)C(c2ccc([N+](=O)[O-])cc2)C(C(=O)N(C)C)=C(C)N1` (centres unmarked) [Example 39, 1,4-Dihydro-2,6-dimethyl-3-(N,N-dimethyl) carboxamido-4-(4-nitrophenyl)-5-{N-[3-(4,4-diphenylpiperidin-1-yl)propyl]}carboxamidopyridine] registered a melting point of 135 °C. In addition, the Ki in data set [1] (setting [2]) was 44.7 µM.
`CC1=C(C(N)=O)C(c2ccc([N+](=O)[O-])cc2)C(C(=O)NCCCN2CCC(c3ccccc3)CC2)=C(C)N1` (centres unmarked) [Example 60, 5-Carboxamido-1,4-dihydro-2,6-dimethyl-4-(4-nitrophenyl)-3-{N-[3-(4-phenylpiperidin-1-yl)propyl]}carboxamidopyridine] came in with a melting point of 100 to 105 °C. In addition, the Ki in data set [1] (setting [2]) is 158 µM.
Regarding `CC1=C(C(N)=O)C(c2cccc([N+](=O)[O-])c2)C(C(=O)NCCCN2CCC(c3ccccc3)CC2)=C(C)N1` (centres unmarked) [Example 62], the melting point lay within 92 to 96 °C. In data set [1] (setting [2]), the Ki is 19.5 µM.
In turn, `CC1=C(C(=O)NCCCN2CCC(c3ccccc3)CC2)C(c2ccc([N+](=O)[O-])cc2)c2c([nH]c(=O)[nH]c2=O)N1` (centres unmarked) [Example 63, 1,4-Dihydro-6-methyl-4-(4-nitrophenyl)-5-{N-[3-(4-phenylpiperidin-1-yl)propyl]}carboxamido-[2,3, d]uracilylpyridine] returned a melting point of 202 to 205 °C. In addition, the Ki in data set [1] (setting [2]) is 66.1 µM.
Turning to `CCC1=C(C(N)=O)C(c2ccc([N+](=O)[O-])cc2)C(C(=O)NCCCN2CCN(c3ccccc3)CC2)=C(CC)N1` (centres unmarked) [Example 104, 5-Carboxamido-2,6-diethyl-1,4-dihydro-4-(4-nitrophenyl)-3-{N-[3-(4-phenylpiperazin-1-yl)propyl]}carboxamido-pyridine hydrochloride hydrate], the Ki in data set [1] (setting [3]) was 1000 µM.
The same measure, in the same setting: next, `CCC1=C(C(N)=O)C(c2ccc([N+](=O)[O-])cc2)C(C(=O)NCCCN2CCC(c3ccccc3)(c3ccccc3)CC2)=C(CC)N1` (centres unmarked) [Example 120, 5-Carboxamido-2,6-diethyl-1,4-dihydro-4-(4-nitrophenyl)-3-{N-[3-(4,4-diphenylpiperidin-1-yl)propyl]} carboxamidopyridine]: 1000 µM.
In turn, `CCC1=C(C(N)=O)C(c2ccc([N+](=O)[O-])cc2)C(C(=O)NCCCN2CCC(c3ccccc3)CC2)=C(CC)N1` (centres unmarked) [Example 121, 5-Carboxamido-2,6-diethyl-1,4-dihydro-4-(4-nitrophenyl)-3-{N-[3-(4-phenylpiperidin-1-yl)propyl]}carboxamidopyridine] showed a melting point of 90 to 101 °C. The Ki in data set [1] (setting [3]) was 16.6 µM.
With `CCC1=C(C(N)=O)C(c2ccc([N+](=O)[O-])cc2)C(C(=O)NC2CCN(CCc3c[nH]c4ccccc34)CC2)=CN1CC` (centres unmarked) [Example 122, 5-Carboxamido-1,4-dihydro-3-(N-{1-[2-(3-indolyl)ethyl]piperidin-4-yl}) carboxamido-1,6-diethyl-4-(4-nitrophenyl)pyridine], the “pKi Ca” value in data set [1] (setting [4]) came out at 3.
On to `CCC1=C(C(N)=O)C(c2ccc([N+](=O)[O-])cc2)C(C(=O)NC2CCN(CCc3c[nH]c4ccccc34)CC2)=CN1CC` (centres unmarked) [Example 123, 5-Carboxamido-1,6-diethyl-1,4-dihydro-3-(N-{1-[2-(3-indolyl)ethyl]piperidin-4-yl}) carboxamide-4-(4-nitrophenyl)pyridine], for which the “pKi Ca” value in data set [1] (setting [4]) is reported as 4.53.
Take `COc1ccccc1N1CCN(CCCNC(=O)C2=C(C)NC(C)=C(C(N)=O)C2c2ccc([N+](=O)[O-])cc2)CC1` (centres unmarked) [Example 124]: the Ki in data set [1] (setting [3]) is 1000 µM.
For the compound `CCC1=C(C(=O)NC)C(c2ccc([N+](=O)[O-])cc2)C(C(=O)NCCCN2CCC(C#N)(c3ccccc3)CC2)=C(CC)N1` (centres unmarked) [Example 126, 3-{N-[3-(4-Cyano-4-phenylpiperidin-1-yl)propyl]}carboxamido-1,4-dihydro-2,6-diethyl-5-(1-methyl)carboxamido-4-(4-nitrophenyl)pyridine], the “pKi Ca” value in data set [1] (setting [4]) turned out to be 6.34.
`CCC1=C(C(N)=O)C(c2ccc([N+](=O)[O-])cc2)C(C(=O)NCCCN2CCC(C(=O)OC)(c3ccccc3)CC2)=C(CCCCN)N1` (centres unmarked) [Example 166, 2-(4-Aminobutyl)-5-carboxamido-6-ethyl-1,4-dihydro-3-{N-[3-(4-methoxycarbonyl-4-phenylpiperidin-1-yl)propyl]}carboxamido-4-(4-nitrophenyl)pyridine] came in with a melting point of 75 to 78 °C. For the same compound, in data set [1] (setting [5]), the Ki was 132 µM.
Turning to `COC(=O)C1=C(C)NC(CCCCN)=C(C(=O)NCCCN2CCC(c3ccccc3)(c3ccccc3)CC2)C1c1ccc([N+](=O)[O-])cc1` (centres unmarked) [Example 170, 2-(4-Aminobutyl)-1,4-dihydro-5-methoxycarbonyl-6-methyl-4-(4-nitrophenyl)-3-{N-[3-(4,4-diphenylpiperidin-1-yl)propyl]}carboxamidopyridine], the melting point lay within 89 to 93 °C. The Ki in data set [1] (PKi Ca) is 2.4 µM.
Regarding `CCC1=C(C(N)=O)C(c2ccc([N+](=O)[O-])cc2)C(C(=O)NCCCN2CCC(c3ccccc3)(c3ccccc3)CC2)=C(CCCCN)N1` (centres unmarked) [Example 171, 2-(4-Aminobutyl)-5-carboxamido-6-ethyl-1,4-dihydro-4-(4-nitrophenyl)-3-{N-[3-(4,4-diphenylpiperidin-1-yl)propyl]}carboxamidopyridine], the melting point was 85 to 89 °C. The Ki in data set [1] (setting [5]) was 18.6 µM.
On to `COC(=O)C1(c2ccccc2)CCN(CCCNC(=O)C2=C(COCCN=[N+]=[N-])NC(C)=C(C(N)=O)C2c2ccc([N+](=O)[O-])cc2)CC1` (centres unmarked) [Example 183, 2-[(2-Azidoethoxy)methyl]-5-carboxamido-1,4-dihydro-3-{N-[3-(4-methoxycarbonyl-4-phenylpiperidin-1-yl)propyl]}carboxamido-6-methyl-4-(4-nitrophenyl)pyridine], for which the Ki in data set [1] (setting [5]) was 74.1 µM.
With `CC1=C(C(N)=O)C(c2ccc([N+](=O)[O-])cc2)C(C(=O)NCCCN2CCC(C(=O)OCCC#N)(c3ccccc3)CC2)=CN1C` (centres unmarked) [Example 209, 5-Carboxamido-3-{N-[3-(4-(2-cyanoethoxycarbonyl)-4-phenylpiperidin-1-yl)propyl]}carboxamido-1,4-dihydro-1,6-dimethyl-4-(4-nitrophenyl) pyridine], the “PKi Ca” value in data set [1] ([3H]nitrendipine, rat cardiac muscle membranes, mean) was found to be 4.53.
As to `CCC1=C(C(N)=O)C(c2ccc([N+](=O)[O-])cc2)C(C(=O)NCCCN2CCC(C(=O)OC)(c3ccccc3)CC2)=C(COCCN)N1` (centres unmarked) [Example 234, 2-((2-Aminoethyl)oxy)methyl-5-carboxamido-6-ethyl-1,4-dihydro-3-(N-(3-(4-methoxycarbonyl-4-phenylpiperidin-1-yl)propyl)) carboxamido-4-(4-nitro)phenylpyridine], the Ki in data set [1] (setting [5]) is 398 µM.
